Experimental data taken from article PMC10331946, “Characterization of Natural Compounds as Inhibitors of NS1 Endonuclease from Canine Parvovirus Type 2” (Journal of Microbiology and Biotechnology, 2023).

Key:
CPV-2 NS1 endonuclease = target: T1, CPV-2 NS1 endonuclease (Canine parvovirus type 2, UniProt P12929); assay: FRET nicking assay, inhibition of recombinant CPV-2 NS1 endonuclease; type: biochemical, Canine parvovirus type 2 (CPV-2); conditions: for Inhibition (%) at 50 μM: 50 μM inhibitor, 1.25 μg enzyme, 50 mM Tris/HCl pH 7.0, 37°C; for Inhibition (%) at 50 μM / IC50: 0.6 μM FRET substrate, 3 min; for IC50: single compounds, 1.25 μg endonuclease, pH 7.0, 300 mM NaCl, 37°C, curcumin by 4PL, others by linear regression
T1 construct: hexahistidine (N); hexahistidine (C); made in house; host or cells: E. coli BL21 (De3) pLysS
T1 sequence (P12929 1-277): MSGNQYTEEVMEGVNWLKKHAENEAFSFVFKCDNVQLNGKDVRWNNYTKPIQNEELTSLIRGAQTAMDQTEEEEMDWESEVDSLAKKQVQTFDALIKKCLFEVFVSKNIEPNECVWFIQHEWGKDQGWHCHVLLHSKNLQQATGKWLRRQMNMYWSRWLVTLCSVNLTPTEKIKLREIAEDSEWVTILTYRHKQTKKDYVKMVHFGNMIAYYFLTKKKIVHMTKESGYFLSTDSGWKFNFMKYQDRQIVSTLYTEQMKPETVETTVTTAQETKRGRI
Text: The fluorescence resonance energy transfer (FRET) substrate, which was composed of an oligonucleotide 5¢-TAA CCT TAC CAT AAG TA↓T CAA TCT GTC TTT-3¢ labeled with carboxyfluorescein (FAM) at the 5¢-terminus and black hole quencher 1 (BHQ1) at the 3¢-terminus as the energy transfer pair, was designed and synthesized by Bioneer Corp. (Korea) (Fig. S1).
cDNA of the CPV-2 NS1 endonuclease gene was synthesized after codon optimization (Genscript, USA) based on the N-terminal amino acid sequence (amino acids 1–277 of the DNA-binding region) of CPV-2 NS1 endonuclease (GenBank Accession No. AAV36764.1) (Fig. S2). The CPV-2 NS1 endonuclease gene was imbedded into the pET-28a (+) vector (Novagen, Germany) with hexahistidine tags at the N- and C-termini. The plasmids were transformed into E. coli BL21 (De3) pLysS (Invitrogen, USA) for expression. The transformed cells were cultured in 1 L of LB containing 30 μg/ml kanamycin at 37°C until the OD600 reached 0.6. Next, protein expression was induced with 1 mM isopropyl β-D-1-thiogalactopyranoside (IPTG) at 24°C for 20 h. Cells were harvested by centrifugation at 12,000 ×g for 25 min and 4°C. The pellet was resuspended in 50 ml 50 mM Tris-HCl buffer (pH 7.0) containing 300 mM NaCl and disrupted by sonication. After centrifugation at 12,000 ×g for 30 min and 4°C, the supernatant was applied to a Ni-NTA agarose column (Qiagen, Germany) and washed with 50 mM Tris-HCl buffer (pH 8.0) containing 300 mM NaCl and 20 mM imidazole. CPV-2 NS1 endonuclease was eluted with 50 mM Tris-HCl buffer (pH 8.0) containing 300 mM NaCl, and 250 mM imidazole, and dialyzed against 50 mM Tris-HCl (pH 7.0) containing 300 mM NaCl at 4°C overnight. The purified protein was stored at −20°C until required.
CPV-2 NS1 endonuclease activity was measured using an FRET substrate as described above. The reaction mixture was composed of 1.25 μg endonuclease and 0.6 μM FRET in 50 mM Tris-HCl buffer (pH 7.0). The reaction was run at 37°C with continuous monitoring of fluorescence for 10 min. Relative fluorescence units (RFUs) were measured using a SpectraMax M3 fluorescence plate reader (Molecular Devices, USA) with an excitation wavelength of 495 nm and an emission wavelength of 517 nm.
Thirty-one compounds, extracted sesame cake, turmeric, and yerba mate were tested for inhibitory effects against CPV-2 NS1 endonuclease. For screening, thirty-one compounds, turmeric, and yerba mate were dissolved in dimethyl sulfoxide (DMSO) to 5 mM or 10 mg/ml as stock solutions. Sesame cake extract (10 mg/ml) was solubilized in water. The reaction was initiated by adding 0.6 μM FRET substrate to a mixture of 50 μM compound and 1.25 μg endonuclease in 50 mM Tris-HCl buffer (pH 7.0) containing 300 mM NaCl. The reaction was run at 37°C for 3 min using a SpectraMax M3 fluorescence plate reader with an excitation wavelength of 495 nm and emission wavelength of 517 nm. Inhibitory activity was calculated using the following equation:
Inhibition activity (%) 100-[(S-S0)÷(C-C0)]×100
where C is RFU of the control (enzyme, buffer, and substrate) after a 3 min reaction, C0 is the RFU of the control at 0 min, S is the RFU of the sample (enzyme, buffer, inhibitor, and substrate) after 3 min, and S0 is the RFU of the sample at 0 min.
We determined the 50% inhibitory concentrations (IC50) of the six natural compounds, extracted turmeric, yerba mate, and sesame cake relative to the inhibitor-free control. The IC50 values of curcumin, and extracted sesame cake were calculated using a four-parameter logistic curve (4PL) using Prism v. 8 software (GraphPad Software Inc., USA). […] 8 software.

bird = conditions: free curcumin 30 mg/kg of feed, cited from earlier work
canine = system: canine; set-up: method as in Campigotto et al., 34; conditions: diet containing curcumin; ref Campigotto et al., 34; cited from earlier work
all animals = system: all animals; set-up: method as in PMID 42087962; conditions: cited from earlier work
beagle dogs = system: beagle dogs; set-up: method as in Yang et al. (2022), 42; conditions: dietary supplementation at 2.5 g/kg, ref Yang et al. (2022), 42; cited from earlier work
[1] = ref Marchiori et al. (2019), 49

| Structure (SMILES) | Inhibition (%) at 50 μM (CPV-2 NS1 endonuclease) | inhibition at 50 µM (CPV-2 NS1 endonuclease; pH 7, read-out: Inhibition (%) at 50 μM, 50 μM inhibitor, 0.6 μM FRET substrate, 1.25 μg enzyme, 50 mM Tris/HCl pH 7.0, 37°C, 3 min) | fold higher CPV-2 NS1 endonuclease inhibitory activity than demethoxycurcumin (CPV-2 NS1 endonuclease; ratio of IC50 values) | IC50 (CPV-2 NS1 endonuclease) | antioxidant capacity versus control group (bird) | egg production versus controls (bird; [1]) | egg weight and mass versus controls (bird; [1]) | effect on canine health (canine) | safe proposed maximum level in complete feed (all animals) | effect on environmental stress-induced symptoms (beagle dogs) | Inhibition (%) at 50 μM (CPV-2 NS1 endonuclease; listed as oleanolic acid) |
| --- | --- | --- | --- | --- | --- | --- | --- | --- | --- | --- | --- |
| COc1cc(/C=C/C(=O)CC(=O)/C=C/c2ccc(O)c(OC)c2)ccc1O [Curcumin] | 100% | > 95% | 2.17 fold | 290 ± 70 nM | higher antioxidant capacity than the control group | higher | higher | enhanced canine health by stimulating the antioxidant system and erythropoiesis | – | – | – |
| O=C(OCC1OC(OC(=O)c2cc(O)c(O)c(OC(=O)c3cc(O)c(O)c(O)c3)c2)C(OC(=O)c2cc(O)c(O)c(OC(=O)c3cc(O)c(O)c(O)c3)c2)C(OC(=O)c2cc(O)c(O)c(OC(=O)c3cc(O)c(O)c(O)c3)c2)C1OC(=O)c1cc(O)c(O)c(OC(=O)c2cc(O)c(O)c(O)c2)c1)c1cc(O)c(O)c(OC(=O)c2cc(O)c(O)c(O)c2)c1 (stereo not shown) [Tannic acid] | – | – | – | 1180 ± 100 nM | – | – | – | – | ≤ 15 mg/kg | relieved environmental stress-induced diarrheal symptoms, inflammatory response, and oxidative stress | – |
| CC1(C)CC[C@]2(C(=O)O)CC[C@]3(C)C(=CC[C@@H]4[C@@]5(C)CC[C@H](O)C(C)(C)[C@@H]5CC[C@]43C)[C@@H]2C1 [Oleanolic acid] | 51 ± 7% | – | – | – | – | – | – | – | – | – | > 29% |
